Experimental data published in ChEMBL document CHEMBL3132769, “Fragment growing to retain or alter the selectivity of anchored kinase hinge-binding fragments” (Medchemcomm, 2014).

Key:
[1] = molecular target: Protein kinase C beta type (Homo sapiens) (UniProt P05771); assay: Inhibition of human truncated PKC beta1 expressed in baculovirus assessed as substrate phosphorylation using fluorescence-labelled peptides as substrate at 9 uM after 90 mins by microfluidic peptide phosphorylation assay
[2] = molecular target: T1, Mitogen-activated protein kinase 12 (Homo sapiens) (UniProt P53778); assay: Inhibition of human full length p38 gamma expressed in Escherichia coli cell assessed as substrate phosphorylation using fluorescence-labelled peptides as substrate at 0.06 uM after 90 mins by microfluidic peptide phosphorylation assay
T1 sequence (whole entry): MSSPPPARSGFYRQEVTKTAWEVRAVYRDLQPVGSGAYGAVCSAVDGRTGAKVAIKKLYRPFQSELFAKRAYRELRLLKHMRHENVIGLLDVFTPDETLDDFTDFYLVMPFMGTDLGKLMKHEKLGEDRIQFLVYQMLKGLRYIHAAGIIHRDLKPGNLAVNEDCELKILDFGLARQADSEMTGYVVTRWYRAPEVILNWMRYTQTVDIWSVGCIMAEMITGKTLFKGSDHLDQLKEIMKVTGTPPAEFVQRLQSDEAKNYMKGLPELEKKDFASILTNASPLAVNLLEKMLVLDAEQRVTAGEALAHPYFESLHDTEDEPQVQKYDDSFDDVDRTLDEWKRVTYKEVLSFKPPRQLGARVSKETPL

[3] = molecular target: MAP/microtubule affinity-regulating kinase 3 (Homo sapiens) (UniProt P27448); assay: Inhibition of human full length c-TAK1 expressed in Escherichia coli cell assessed as substrate phosphorylation using fluorescence-labelled peptides as substrate at […] after 90 mins by microfluidic peptide phosphorylation assay
[4] = molecular target: T2, cGMP-dependent protein kinase 1 (Homo sapiens) (UniProt Q13976); assay: Inhibition of human full length PKG-1a expressed in baculovirus assessed as substrate phosphorylation using fluorescence-labelled peptides as substrate at […] after 90 mins by microfluidic peptide phosphorylation assay
T2 sequence (whole entry): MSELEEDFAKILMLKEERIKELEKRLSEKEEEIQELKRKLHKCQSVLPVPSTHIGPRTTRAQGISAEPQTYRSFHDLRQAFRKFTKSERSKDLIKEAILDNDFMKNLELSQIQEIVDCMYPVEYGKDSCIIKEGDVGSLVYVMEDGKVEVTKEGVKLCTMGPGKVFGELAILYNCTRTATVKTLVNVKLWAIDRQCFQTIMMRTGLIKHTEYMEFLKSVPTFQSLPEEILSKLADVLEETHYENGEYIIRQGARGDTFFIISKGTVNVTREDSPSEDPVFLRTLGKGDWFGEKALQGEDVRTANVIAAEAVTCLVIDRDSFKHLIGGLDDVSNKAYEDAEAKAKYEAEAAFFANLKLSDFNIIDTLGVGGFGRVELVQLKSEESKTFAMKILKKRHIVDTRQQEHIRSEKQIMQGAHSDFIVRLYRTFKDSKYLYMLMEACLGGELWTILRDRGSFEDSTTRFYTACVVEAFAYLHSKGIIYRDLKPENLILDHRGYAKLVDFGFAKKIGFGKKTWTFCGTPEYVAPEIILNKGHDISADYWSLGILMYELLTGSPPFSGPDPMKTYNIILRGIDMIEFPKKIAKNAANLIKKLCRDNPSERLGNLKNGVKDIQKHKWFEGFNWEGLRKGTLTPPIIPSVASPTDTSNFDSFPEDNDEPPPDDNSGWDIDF

[5] = molecular target: RAF proto-oncogene serine/threonine-protein kinase (Homo sapiens) (UniProt P04049); assay: Inhibition of human truncated c-Raf expressed in baculovirus assessed as substrate phosphorylation using fluorescence-labelled peptides as substrate at […] after 90 mins by microfluidic peptide phosphorylation assay
[6] = molecular target: Tyrosine-protein kinase Fyn (Homo sapiens) (UniProt P06241); assay: Inhibition of human full length FYN expressed in baculovirus assessed as substrate phosphorylation using fluorescence-labelled peptides as substrate at 420 uM after 90 mins by microfluidic peptide phosphorylation assay
[7] = molecular target: T3, Serine/threonine-protein kinase 3 (Homo sapiens) (UniProt Q13188); assay: Inhibition of human full length MST2 expressed in baculovirus assessed as substrate phosphorylation using fluorescence-labelled peptides as substrate at 70 uM after 90 mins by microfluidic peptide phosphorylation assay
T3 sequence (whole entry): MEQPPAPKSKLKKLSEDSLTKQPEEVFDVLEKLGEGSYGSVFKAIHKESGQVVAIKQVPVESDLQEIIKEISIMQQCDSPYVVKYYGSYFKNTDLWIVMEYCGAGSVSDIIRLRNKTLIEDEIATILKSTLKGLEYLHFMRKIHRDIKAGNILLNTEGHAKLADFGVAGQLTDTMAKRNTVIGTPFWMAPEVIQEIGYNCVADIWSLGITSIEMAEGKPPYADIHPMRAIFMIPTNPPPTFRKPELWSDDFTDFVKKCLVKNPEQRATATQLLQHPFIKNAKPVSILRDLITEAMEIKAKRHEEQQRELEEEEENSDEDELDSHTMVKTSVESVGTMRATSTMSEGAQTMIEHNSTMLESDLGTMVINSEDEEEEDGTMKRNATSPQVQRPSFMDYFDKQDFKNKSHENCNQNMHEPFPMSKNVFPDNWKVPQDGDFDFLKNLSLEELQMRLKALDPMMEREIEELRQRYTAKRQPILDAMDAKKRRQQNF

[8] = molecular target: Fibroblast growth factor receptor 2 (Homo sapiens) (UniProt P21802); assay: Inhibition of human FGFR2 catalytic domain expressed in baculovirus assessed as substrate phosphorylation using fluorescence-labelled peptides as substrate at 2 uM after 90 mins by microfluidic peptide phosphorylation assay
[9] = molecular target: Mitogen-activated protein kinase 14 (Homo sapiens) (UniProt Q16539); assay: Inhibition of human truncated p38 alpha expressed in Escherichia coli cell assessed as substrate phosphorylation using fluorescence-labelled peptides as substrate at 1000 uM after 90 mins by microfluidic peptide phosphorylation assay
[10] = tested on: Tyrosine-protein kinase ABL1 (Homo sapiens), P00519 [Q252H]; assay: Inhibition of human truncated ABL Q252H mutant expressed in baculovirus assessed as substrate phosphorylation using fluorescence-labelled peptides as substrate at 1000 uM after 90 mins by microfluidic peptide phosphorylation assay

Sequence of MAP/microtubule affinity-regulating kinase 3 (Homo sapiens) (P27448 whole entry, looked up): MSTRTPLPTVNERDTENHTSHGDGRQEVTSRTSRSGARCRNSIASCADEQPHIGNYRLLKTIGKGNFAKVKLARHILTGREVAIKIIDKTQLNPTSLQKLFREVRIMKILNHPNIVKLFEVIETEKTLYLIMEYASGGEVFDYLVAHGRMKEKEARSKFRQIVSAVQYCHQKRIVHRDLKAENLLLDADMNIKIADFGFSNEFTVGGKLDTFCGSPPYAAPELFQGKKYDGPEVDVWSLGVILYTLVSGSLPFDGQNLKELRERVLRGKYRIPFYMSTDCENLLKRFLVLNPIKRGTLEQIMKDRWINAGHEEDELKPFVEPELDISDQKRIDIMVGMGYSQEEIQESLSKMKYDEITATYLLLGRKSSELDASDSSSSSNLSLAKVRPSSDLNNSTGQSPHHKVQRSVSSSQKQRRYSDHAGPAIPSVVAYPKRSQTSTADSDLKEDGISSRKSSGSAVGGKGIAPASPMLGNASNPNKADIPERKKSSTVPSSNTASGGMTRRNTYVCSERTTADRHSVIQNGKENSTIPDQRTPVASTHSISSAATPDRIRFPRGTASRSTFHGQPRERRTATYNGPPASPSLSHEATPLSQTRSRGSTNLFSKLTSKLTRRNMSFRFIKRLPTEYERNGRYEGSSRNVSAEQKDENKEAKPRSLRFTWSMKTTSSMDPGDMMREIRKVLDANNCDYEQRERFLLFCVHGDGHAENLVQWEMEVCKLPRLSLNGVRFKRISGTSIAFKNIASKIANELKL
Sequence of Tyrosine-protein kinase Fyn (Homo sapiens) (P06241 2-537 limits assumed): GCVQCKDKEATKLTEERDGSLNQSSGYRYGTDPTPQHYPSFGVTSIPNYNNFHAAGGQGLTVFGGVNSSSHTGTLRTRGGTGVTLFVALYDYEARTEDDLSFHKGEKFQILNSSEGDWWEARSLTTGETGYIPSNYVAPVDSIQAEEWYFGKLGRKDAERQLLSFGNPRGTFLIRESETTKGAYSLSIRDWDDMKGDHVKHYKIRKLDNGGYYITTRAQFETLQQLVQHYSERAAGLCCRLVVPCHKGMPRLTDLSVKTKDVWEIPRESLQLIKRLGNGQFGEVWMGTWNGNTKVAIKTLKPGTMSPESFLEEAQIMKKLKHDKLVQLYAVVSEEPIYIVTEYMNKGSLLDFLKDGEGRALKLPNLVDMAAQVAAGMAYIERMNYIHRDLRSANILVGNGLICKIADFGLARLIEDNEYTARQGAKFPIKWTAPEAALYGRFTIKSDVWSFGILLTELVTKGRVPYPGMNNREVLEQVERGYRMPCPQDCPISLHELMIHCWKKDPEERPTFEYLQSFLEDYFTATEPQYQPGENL
Sequence of RAF proto-oncogene serine/threonine-protein kinase (Homo sapiens) (P04049 whole entry, the tested form may be a part): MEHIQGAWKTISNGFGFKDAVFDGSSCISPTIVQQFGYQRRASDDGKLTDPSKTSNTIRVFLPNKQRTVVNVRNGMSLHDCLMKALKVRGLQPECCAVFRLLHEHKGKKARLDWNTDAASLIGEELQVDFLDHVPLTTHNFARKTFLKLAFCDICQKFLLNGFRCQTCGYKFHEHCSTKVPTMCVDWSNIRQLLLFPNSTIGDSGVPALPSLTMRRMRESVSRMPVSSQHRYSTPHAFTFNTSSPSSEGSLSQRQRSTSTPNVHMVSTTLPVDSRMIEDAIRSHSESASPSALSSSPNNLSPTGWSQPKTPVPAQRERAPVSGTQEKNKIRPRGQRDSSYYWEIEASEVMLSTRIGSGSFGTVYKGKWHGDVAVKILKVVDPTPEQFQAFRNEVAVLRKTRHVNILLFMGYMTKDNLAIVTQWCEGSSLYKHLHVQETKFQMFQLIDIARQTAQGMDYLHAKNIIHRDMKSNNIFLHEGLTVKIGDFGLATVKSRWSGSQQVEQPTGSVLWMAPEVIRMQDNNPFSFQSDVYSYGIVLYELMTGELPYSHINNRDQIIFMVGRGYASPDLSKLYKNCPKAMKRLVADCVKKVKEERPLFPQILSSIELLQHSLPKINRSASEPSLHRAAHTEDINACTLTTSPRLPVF
Sequence of Protein kinase C beta type (Homo sapiens) (P05771 2-671 limits assumed): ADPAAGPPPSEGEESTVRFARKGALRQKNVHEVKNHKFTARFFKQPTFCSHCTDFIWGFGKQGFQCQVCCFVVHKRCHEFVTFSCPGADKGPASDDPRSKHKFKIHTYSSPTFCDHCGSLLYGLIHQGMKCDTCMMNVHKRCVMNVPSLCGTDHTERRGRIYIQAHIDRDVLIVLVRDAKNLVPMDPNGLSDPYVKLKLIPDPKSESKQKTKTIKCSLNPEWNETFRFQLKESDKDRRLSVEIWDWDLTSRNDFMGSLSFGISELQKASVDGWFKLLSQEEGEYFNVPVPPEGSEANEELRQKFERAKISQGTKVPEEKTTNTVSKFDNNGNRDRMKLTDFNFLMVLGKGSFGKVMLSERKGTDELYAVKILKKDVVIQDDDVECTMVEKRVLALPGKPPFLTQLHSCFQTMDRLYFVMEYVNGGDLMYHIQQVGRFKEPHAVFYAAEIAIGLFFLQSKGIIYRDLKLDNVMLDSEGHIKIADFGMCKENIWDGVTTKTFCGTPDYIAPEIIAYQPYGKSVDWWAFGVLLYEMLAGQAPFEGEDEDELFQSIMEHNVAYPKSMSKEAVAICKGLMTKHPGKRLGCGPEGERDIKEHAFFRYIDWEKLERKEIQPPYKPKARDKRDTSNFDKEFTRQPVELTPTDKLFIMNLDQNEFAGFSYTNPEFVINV
Sequence of Mitogen-activated protein kinase 14 (Homo sapiens) (Q16539 whole entry, the tested form may be a part): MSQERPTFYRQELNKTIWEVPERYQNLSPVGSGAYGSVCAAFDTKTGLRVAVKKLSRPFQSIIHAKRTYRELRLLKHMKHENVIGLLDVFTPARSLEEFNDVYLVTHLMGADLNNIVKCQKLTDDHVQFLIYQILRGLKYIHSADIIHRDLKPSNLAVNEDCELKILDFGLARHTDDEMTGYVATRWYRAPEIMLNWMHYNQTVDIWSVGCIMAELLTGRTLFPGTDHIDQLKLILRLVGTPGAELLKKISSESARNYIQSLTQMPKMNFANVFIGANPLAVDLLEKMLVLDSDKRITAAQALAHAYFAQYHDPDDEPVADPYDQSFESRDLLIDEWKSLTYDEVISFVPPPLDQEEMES
Sequence of Fibroblast growth factor receptor 2 (Homo sapiens) (P21802 22-821 limits assumed): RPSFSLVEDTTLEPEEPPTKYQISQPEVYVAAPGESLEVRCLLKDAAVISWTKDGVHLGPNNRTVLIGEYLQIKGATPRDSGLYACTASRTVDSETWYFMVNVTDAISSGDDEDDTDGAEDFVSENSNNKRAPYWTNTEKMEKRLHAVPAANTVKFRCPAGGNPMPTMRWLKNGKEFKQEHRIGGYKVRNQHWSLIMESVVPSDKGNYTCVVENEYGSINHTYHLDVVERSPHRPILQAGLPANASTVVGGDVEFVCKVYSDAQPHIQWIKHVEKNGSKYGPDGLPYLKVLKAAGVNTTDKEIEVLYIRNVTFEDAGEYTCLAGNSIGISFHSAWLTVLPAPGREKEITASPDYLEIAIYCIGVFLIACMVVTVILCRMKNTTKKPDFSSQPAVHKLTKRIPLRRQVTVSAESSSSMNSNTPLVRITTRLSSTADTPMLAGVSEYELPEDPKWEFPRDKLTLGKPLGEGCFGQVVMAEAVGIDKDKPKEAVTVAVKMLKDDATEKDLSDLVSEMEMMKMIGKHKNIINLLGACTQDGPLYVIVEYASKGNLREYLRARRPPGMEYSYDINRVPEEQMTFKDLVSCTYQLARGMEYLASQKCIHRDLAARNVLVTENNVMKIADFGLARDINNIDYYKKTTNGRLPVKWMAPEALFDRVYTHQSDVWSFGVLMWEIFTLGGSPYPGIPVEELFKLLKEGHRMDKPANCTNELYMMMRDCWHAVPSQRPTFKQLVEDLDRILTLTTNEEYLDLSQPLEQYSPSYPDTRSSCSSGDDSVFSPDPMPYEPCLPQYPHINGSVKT

Q: For `NCC1CN(c2ncnc3[nH]c4cnccc4c23)CCO1` (stereo not given), which inhibition [1] is on record?
A: Its inhibition is 22.5%.

Q: With `NC1(Cc2ccc(Cl)cc2)CCN(c2ncnc3[nH]ccc23)CC1` as the compound, how does the inhibition [2] read?
A: Its inhibition is 0%.

Q: `COC(=O)c1cnc(Nc2cnc(C#N)cn2)cc1NCC1CCNCC1` was tested. Which inhibition [3] did it give?
A: The inhibition was 0.5%.

Q: And the inhibition [4]?
A: The inhibition was 4.5%.

Q: And the inhibition [5]?
A: The inhibition was 7%.

Q: For `c1nc(N2CCOCC2)c2nc[nH]c2n1`, which inhibition [6] is on record?
A: The inhibition was 64.5%.

Q: With `CNCc1ccc(-c2ncnc3[nH]cnc23)cc1` as the compound, how does the inhibition [7] read?
A: The inhibition was 88%.

Q: How did the inhibition [8] turn out when `NC1CCN(c2ncnc3[nH]ccc23)CC1` was run?
A: The inhibition was 1.5%.

Q: With `c1cnc2[nH]ccc2c1` as the compound, how does the inhibition [9] read?
A: Its inhibition is 0%.

Q: And the inhibition [10]?
A: The inhibition was 29%.
